Legend:
[1] = system: fresh plasma taken from Wister rat; assay: Anti-blood coagulation activity by activated partial thromboplastin time (APTT); format: biochemical; settings: 9 μg/mL or 3 μg/mL
From the text: Anti-blood coagulation activity of the sugar chain compound such as oligosaccharide or a salt thereof used in the agent of the present invention for promoting HGF production can be assessed by measuring an activated partial thromboplastin time (APTT) or anti-factor Xa activity according to the known methods that have been used for measuring anti-blood coagulation activity of low-molecular-weight heparin.
Regarding the heparin fragments (oligosaccharides) obtained in Example 1, anti-blood coagulation activity and LPL releasing activity were measured. Anti-blood coagulation activity was assessed by comparing an activated partial thromboplastin time (APTT). APTT was measured using fresh plasma taken from Wister rat (male) and Data φ·APTT kit (Sysmex) which utilizes activation by ellagic acid. The heparin fragments were added to rat plasma at a concentration of 9 μg/mL or 3 μg/mL, and APTT values (second) were compared.

lipoprotein lipase (LPL) = assay: LPL releasing activity (LPL amount in plasma by ELISA after tail vein administration); format: in vivo, Wister rat; settings: rat, after 10 minutes
From the text: LPL releasing activity of the sugar chain compound such as oligosaccharide used in the agent of the present invention for promoting HGF production or a salt thereof can be assessed by administering the sugar chain compound or a salt thereof to a mouse or a rat, taking the plasma after a certain time, and measuring the amount of LPL in the plasma. The amount of LPL in the plasma can be determined by measuring LPL activity, or measuring the mass of LPL protein by ELISA.
For measuring LPL releasing activity, heparin fragments were administered to Wister rat (3-week old male) via the tail vein at 0.3 μg per 1 g of body weight and, after 10 minutes, blood was taken from axillary fossa venous plexus, and a LPL amount in the resulting plasma was measured by ELISA (Daiichi Pure Chemicals Co., Ltd). In high-molecular weight heparin, about 250 ng/mL LPL was released, but in low-molecular weight heparin (Fragmin, Kissei Pharmaceutical Co., Ltd.), released LPL amount was reduced to about 30% of the amount in the case of high-molecular weight heparin. […] In particular, in oligosaccharides not larger than octasaccharide, reduction in released LPL amount was remarkable.

[2] = system: MRC-9 cells, human fetal lung fibroblasts; assay: Activity to promote HGF production in MRC-9 cells (HGF in culture medium by ELISA); format: cell-based; settings: 0 to 50 μg/ml
Procedure: An activity to promote HGF production of the agent of the present invention can be measured by comparing the HGF concentration in the culture medium of HGF-producing cells when the sugar chain compounds such as oligosaccharides or a salt thereof are added with that when they are not added, wherein the concentration of HGF can be measured by ELISA. As an HGF-producing cell, MRC-5 and MRC-9 cells, human fetal lung fibroblasts, can be used.
Activities to promote HGF production of the heparin fragments (oligosaccharides) obtained in Example 1 were measured by using MRC-9 cells, human fetal lung fibroblasts. The cells were cultured with heparin fragments(oligosaccharides) and amounts of HGF produced by the cell were analyzed. First, MRC-9 cells were seeded onto a 48 well plate at a density of 5×10^4 cells/cm^2, and cultured in a DMEM medium containing 10% FCS for one day. After removing the medium, the cells were washed twice with 0.5 mL of PBS, and the medium was exchanged with a DMEM medium containing 1% FCS. Thereafter, the culture was continued. At this time, the heparin fragments obtained in Example 1 were added to the medium at a final concentration of 1 μg/ml. After 24 hours, the culture supernatant was recovered, and an amount of HGF secreted into the culture medium was measured by the ELISA method. […]

LPL releasing activity (in words) (lipoprotein lipase (LPL))	Structure (SMILES)	anti-blood coagulation activity / extension of APTT (in words) [1]	activity to promote HGF production of disaccharide compounds (in words) [2]
not detected	NC1C(O)OC(CO)C(OC2OC(C(=O)O)=CC(O)C2OS(=O)(=O)O)C1O (stereo not drawn) [2-Sac-2S, ΔUA-2S-GlcN]	not detected	
not detected	CC(=O)N[C@H]1C(O)O[C@H](COS(=O)(=O)O)[C@@H](O[C@@H]2OC(C(=O)O)=C[C@H](O)[C@H]2O)[C@@H]1O (some centres unmarked) [2-Sac-6S, ΔUA-GlcNAc-6S]	not detected	higher activity to promote HGF production than 2-Sac-2S
not detected	O=C(O)C1=C[C@H](O)[C@@H](O)[C@H](O[C@H]2[C@H](O)[C@@H](NS(=O)(=O)O)C(O)O[C@@H]2CO)O1 (some centres unmarked) [2-Sac-NS, ΔUA-GlcNS]	not detected	higher activity to promote HGF production than 2-Sac-2S

— US20060293275A1, “Hgf production accelerator containing heparin-like oligosaccharide” (priority 2004, published 2006)
